# Patent US20030083469A1, “Allosteric control of nuclear hormone receptors” (The Salk Institute for Biological Studies, priority 1995, published 2003)
# Tests used:
# GST-RXR/RAR heterodimers = target: T1, GST-RXR/RAR heterodimers (Homo sapiens, UniProt P10276+P19793); assay: Ligand binding assay with GST-RXR/RAR heterodimers
# T1 sequence (P19793 1-462): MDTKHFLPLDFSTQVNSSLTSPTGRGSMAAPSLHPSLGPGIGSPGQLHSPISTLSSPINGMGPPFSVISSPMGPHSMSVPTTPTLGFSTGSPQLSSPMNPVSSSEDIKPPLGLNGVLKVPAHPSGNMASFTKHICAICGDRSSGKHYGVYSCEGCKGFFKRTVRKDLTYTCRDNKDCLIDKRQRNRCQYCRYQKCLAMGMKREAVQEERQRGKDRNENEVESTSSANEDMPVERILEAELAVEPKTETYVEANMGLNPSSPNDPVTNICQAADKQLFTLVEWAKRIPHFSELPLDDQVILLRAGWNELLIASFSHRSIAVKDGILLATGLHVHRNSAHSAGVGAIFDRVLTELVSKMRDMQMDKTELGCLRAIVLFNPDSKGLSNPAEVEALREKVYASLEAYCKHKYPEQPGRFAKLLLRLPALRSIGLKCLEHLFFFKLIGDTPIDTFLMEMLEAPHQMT
# T1 sequence (P10276 1-462): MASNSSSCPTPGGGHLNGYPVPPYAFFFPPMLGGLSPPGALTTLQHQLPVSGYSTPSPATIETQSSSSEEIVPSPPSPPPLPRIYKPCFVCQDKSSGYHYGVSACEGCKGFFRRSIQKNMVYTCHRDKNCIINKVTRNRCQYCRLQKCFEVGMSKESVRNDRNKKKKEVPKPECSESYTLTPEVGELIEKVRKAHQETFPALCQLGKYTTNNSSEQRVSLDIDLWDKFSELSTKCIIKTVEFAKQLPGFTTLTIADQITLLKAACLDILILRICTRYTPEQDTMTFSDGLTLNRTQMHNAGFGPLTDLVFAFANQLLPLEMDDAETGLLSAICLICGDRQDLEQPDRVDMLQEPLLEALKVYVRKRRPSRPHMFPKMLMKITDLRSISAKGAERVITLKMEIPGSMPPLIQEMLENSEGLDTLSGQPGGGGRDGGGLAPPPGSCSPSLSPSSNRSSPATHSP
# GAL-RXR = target: T2, GAL-RXR (Homo sapiens, UniProt P19793); assay: Transient transfection analysis of GAL-RXR LBD alone (UASG x4 TK-LUC, CV-1 cells); format: cell-based; settings: 100 nM LG69
# T2 construct: human RXRα LBD (Glu 203 - Thr 462); expressed in transfected cells; host or cells: CV-1
# T2 sequence (P19793 203-462): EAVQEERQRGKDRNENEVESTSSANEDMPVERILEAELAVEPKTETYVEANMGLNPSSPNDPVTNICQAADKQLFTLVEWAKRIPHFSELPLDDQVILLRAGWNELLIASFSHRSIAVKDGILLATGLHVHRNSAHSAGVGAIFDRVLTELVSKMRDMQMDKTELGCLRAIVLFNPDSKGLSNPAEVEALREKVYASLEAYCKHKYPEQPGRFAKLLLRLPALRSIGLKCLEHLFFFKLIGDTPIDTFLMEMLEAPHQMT
# Description: (§1) CV-1 cells were grown in Dulbecco's Modified Eagle's medium supplemented with 10% resin-charcoal stripped (Samuels et al., Endocrinology 105:80-85 (1979)) fetal bovine serum, 50 U/ml penicillin G and 50 μg/ml streptomycin sulfate (DMEM-FBS) at 37° C. in 5% CO2. One day prior to transfection, cells were plated to 50-80% confluence using phenol-red free DMEM-FBS. Cells were transfected by lipofection using N-{2-(2,3)-dioleoyloxy)propyl-N,N,N-trimethyl ammonium methyl sulfate} according to the manufacturer's instructions (DOTAP, Boehringer Mannheim). […]. All points were performed in triplicate in each experiment and varied by less than 10%. Each experiment was repeated three or more times with similar results.
# (§2) Thus, a chimeric protein was constructed containing the yeast GAL4 DBD linked to the RXR LBD (GAL-RXR). The ability of this RXR-chimera to respond to LG69 was initially examined in the presence of truncated receptors containing the LBDs of T3R or RAR. Thus, transient transfection analysis of GAL-RXR LBD was carried out in the presence of T3R, RAR or VDR LBDs. Reporter constructs contained 4 copies of the UASG cloned upstream of the TK-LUC reporter. […] Normalized luciferase activity was determined and plotted as reporter activity (see FIG. 3).
# (§3) […]. Normalized luciferase activity was determined and plotted as fold-activation relative to untreated cells.
# GAL-RXR + RAR LBD = target: T3, GAL-RXR + RAR LBD (Homo sapiens, UniProt P10276+P19793); assay: Transient transfection analysis of GAL-RXR LBD in the presence of RAR LBD; format: cell-based
# T3 construct: human RXRα LBD (Glu 203 - Thr 462); HRARα LBD (Glu 156 - PRO 462); expressed in transfected cells; host or cells: CV-1
# T3 sequence (P19793 203-462): T2 sequence (P19793 203-462)
# T3 sequence (P10276 156-462): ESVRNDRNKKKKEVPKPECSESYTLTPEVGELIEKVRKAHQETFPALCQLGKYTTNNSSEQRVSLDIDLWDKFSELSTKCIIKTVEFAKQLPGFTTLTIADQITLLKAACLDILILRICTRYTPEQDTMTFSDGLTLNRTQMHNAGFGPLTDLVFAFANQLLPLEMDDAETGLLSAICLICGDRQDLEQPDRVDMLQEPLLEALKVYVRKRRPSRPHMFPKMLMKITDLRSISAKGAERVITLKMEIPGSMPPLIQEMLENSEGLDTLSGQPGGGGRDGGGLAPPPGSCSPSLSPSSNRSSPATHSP
# Description: as §1, §2, §3
smiles,measurement,setting,value
"CC=C(c1ccc(C(=O)O)cc1)c1cc2c(cc1C)C(C)(C)CCC2(C)C [LG69, 4-{1-(3,5,5,8,8-pentamethyl-5,6,7,8-tetrahydro-2-napthalenyl)-1-propenyl}benzoic acid]",competition of [3H] 9-cis RA binding by addition of both Am580 and LG69,"GST-RXR/RAR heterodimers; 50 nM [3H] 9-cis RA, 2 μM Am580 + 2 μM LG69",Nearly complete competition
same,decrease in the amount of [3H] LG69 bound to GST-RXR on addition of RAR,"GST-RXR/RAR heterodimers; 50 nM [3H] LG69, 500 ng hRARα",< 85%
same,activation of the UASG reporter by GAL-RXR in response to ligand,GAL-RXR,activated
same,fold response to LG69,GAL-RXR; GAL-RXR alone,69 fold
same,transcriptional activity with Am580+LG69 over that seen with AM580 alone,"GAL-RXR + RAR LBD; GAL-RXR + RAR LBD, 50 nM AM580+100 nM LG69",increased transcriptional activity
same,fold-responsiveness of GAL-RXR to LG69,"GAL-RXR + RAR LBD; unliganded RAR LBD present, 100 nM LG69",strongly suppressed
